Experimental data as given in US8895597B2, “Combination of local temozolomide with local BCNU” (priority 2010, dated 2014).

Experiments:
F98 glioma = experiment: Efficacy of local TMZ, local BCNU and XRT, intracranial F98 glioma (resistant to alkylating agents); assay type: in vivo, F344 rats; conditions: without XRT
9L gliosarcoma = experiment: Efficacy of local TMZ, local BCNU and XRT, intracranial 9L gliosarcoma (second experiment); assay type: in vivo, F344 rats; conditions: without XRT
Source text: TMZ, provided by the National Institute of Health/National Cancer Institute, (Bethesda, Md.), was incorporated into a polyanhydride CPP:SA 20:80 polymer at concentrations of 50% (w/w) by methods as described by Tamargo, et al., Cancer Res. 53(2):329-333 (1993). BCNU was purchased from the Johns Hopkins Hospital pharmacy (Bristol Meyers; Princeton, N.J.) and polymers were made at concentrations of 3.8% (w/w) in a similar fashion. The polymers were then pressed into discs weighing approximately 10 mg. Blank polymers (100% CPP:SA) were made in an analogous manner. In vitro release kinetics, biodistribution studies, and studies to determine maximally tolerated dose of BCNU and TMZ polymers as described by Brem, et al., Cancer Chemother. Pharmacol. 60(5):643-650 (2007); Tamargo, et al., Cancer Res. 53(2):329-333 (1993); and Grossman, et al., J. Neurosurg. 76(4):640-647 (1992). Polymers were stored at −20° C. until use.
The 9L gliosarcoma was obtained from Dr. M. Barker at the University of California-San Francisco Brain Tumor Research Center (San Francisco, Calif.). […]
To determine the efficacy of the combination of locally delivered TMZ with locally delivered BCNU and XRT, tumor-bearing rats were randomized into groups of sixteen for treatment on post-operative Day 5. […] Any animals appearing moribund were sacrificed and date of death recorded. […]

## Cn1nnc2c(C(N)=O)ncn2c1=O [50 mg/kg oral TMZ, temozolomide]
F98 glioma; alive at Day 120
  Long-term survivors (%): 0%
F98 glioma; range in brackets
  Median survival (days): 15 (13-18) days
9L gliosarcoma; alive at Day 120
  Long-term survivors (%): 0%
9L gliosarcoma; range in brackets
  Median survival (days): 24 (14-33) days
